Measured values: the supplement of paper PMC10307832

Experiments:
Assay in all cases: relative viability (nuclei count vs DMSO), 5 days (fraction); higher = more cells survive
Adavosertib + Linsitinib = compound: C=CCn1c(=O)c2cnc(Nc3ccc(N4CCN(C)CC4)cc3)nc2n1-c1cccc(C(C)(C)O)n1 [Adavosertib] + C[C@]1(O)C[C@@H](c2nc(-c3ccc4ccc(-c5ccccc5)nc4c3)c3c(N)nccn32)C1 [Linsitinib] (partner 1 µM)
Outline: (§1)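 Values are medians from duplicate plates. Each reflects relative viability, defined as the nuclei count of treated wells over that of vehicle wells. Lung cancer cell lines in 1536-well plates were pin-tool dosed one day after seeding with one drug alone or with a fixed anchor-drug dose plus five library-drug doses (not always all listed) in √10 steps, then fixed, stained and imaged at 4× after 5 days.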

Adavosertib + Navitoclax = compound: C=CCn1c(=O)c2cnc(Nc3ccc(N4CCN(C)CC4)cc3)nc2n1-c1cccc(C(C)(C)O)n1 [Adavosertib] + CC1(C)CCC(c2ccc(Cl)cc2)=C(CN2CCN(c3ccc(C(=O)NS(=O)(=O)c4ccc(N[C@H](CCN5CCOCC5)CSc5ccccc5)c(S(=O)(=O)C(F)(F)F)c4)cc3)CC2)C1 [Navitoclax] (partner 0.5 µM)
Outline: as §1

[1] = compound: C=CCn1c(=O)c2cnc(Nc3ccc(N4CCN(C)CC4)cc3)nc2n1-c1cccc(C(C)(C)O)n1 [Adavosertib] + CC(=O)c1c(C)c2cnc(Nc3ccc(N4CCNCC4)cn3)nc2n(C2CCCC2)c1=O [Palbociclib] (partner 0.5 µM)
Outline: as §1

Adavosertib + Trametinib = compound: C=CCn1c(=O)c2cnc(Nc3ccc(N4CCN(C)CC4)cc3)nc2n1-c1cccc(C(C)(C)O)n1 [Adavosertib] + CC(=O)Nc1cccc(-n2c(=O)n(C3CC3)c(=O)c3c(Nc4ccc(I)cc4F)n(C)c(=O)c(C)c32)c1 [Trametinib] (partner 0.02 µM)
Outline: as §1

Adavosertib + Dasatinib = compound: C=CCn1c(=O)c2cnc(Nc3ccc(N4CCN(C)CC4)cc3)nc2n1-c1cccc(C(C)(C)O)n1 [Adavosertib] + Cc1nc(Nc2ncc(C(=O)Nc3c(C)cccc3Cl)s2)cc(N2CCN(CCO)CC2)n1 [Dasatinib] (partner 0.075 µM)
Outline: as §1

Cell Line | relative viability (Adavosertib + Linsitinib; first compound 0.01 µM) | relative viability (Adavosertib + Linsitinib; first compound 0.03162 µM) | relative viability (Adavosertib + Linsitinib; first compound 0.1 µM) | relative viability (Adavosertib + Linsitinib; first compound 0.3162 µM) | relative viability (Adavosertib + Navitoclax; first compound 0.01 µM) | relative viability (Adavosertib + Navitoclax; first compound 0.03162 µM) | relative viability (Adavosertib + Navitoclax; first compound 0.1 µM) | relative viability (Adavosertib + Navitoclax; first compound 0.3162 µM) | relative viability ([1]; first compound 0.01 µM) | relative viability ([1]; first compound 0.03162 µM) | relative viability ([1]; first compound 0.1 µM) | relative viability ([1]; first compound 0.3162 µM) | relative viability (Adavosertib + Trametinib; first compound 0.01 µM) | relative viability (Adavosertib + Trametinib; first compound 0.03162 µM) | relative viability (Adavosertib + Trametinib; first compound 0.1 µM) | relative viability (Adavosertib + Trametinib; first compound 0.3162 µM) | relative viability (Adavosertib + Dasatinib; first compound 0.01 µM) | relative viability (Adavosertib + Dasatinib; first compound 0.03162 µM) | relative viability (Adavosertib + Dasatinib; first compound 0.1 µM) | relative viability (Adavosertib + Dasatinib; first compound 0.3162 µM)
NCI-H2085 | 0.872 | 0.996 | 0.988 | 0.827 | 1.28 | 1.05 | 1.06 | 1.11 | 0.479 | 0.458 | 0.519 | 0.577 | 0.544 | 0.568 | 0.435 | 0.524 | 0.257 | 0.266 | 0.229 | 0.279
NCI-H2087 | 0.906 | 1.11 | 1.07 | 0.87 | 1.09 | 1.14 | 1.09 | 0.937 | 0.218 | 0.217 | 0.263 | 0.243 | 0.217 | 0.204 | 0.207 | 0.2 | 0.901 | 0.786 | 0.893 | 0.845
NCI-H2126 | 0.695 | 0.712 | 0.703 | 0.722 | 0.882 | 0.871 | 0.871 | 0.894 | 0.352 | 0.34 | 0.352 | 0.35 | 0.571 | 0.528 | 0.619 | 0.619 | 0.602 | 0.619 | 0.564 | 0.561
NCI-H2228 | 0.629 | 0.623 | 0.76 | 0.395 | 0.691 | 1.41 | 0.885 | 0.305 | – | 0.746 | 0.62 | 0.545 | – | 0.498 | 0.465 | 0.404 | 0.536 | 0.492 | 0.475 | 0.265
NCI-H2347 | 0.944 | 0.93 | 1.09 | 0.914 | 0.811 | 0.804 | 0.954 | 0.791 | 0.41 | 0.419 | 0.444 | 0.44 | 0.287 | 0.327 | 0.323 | 0.285 | 0.378 | 0.304 | 0.267 | 0.258
NCI-H2405 | 0.959 | 0.966 | 1 | 0.995 | 0.869 | 1.01 | 0.98 | 0.996 | – | 0.492 | 0.555 | 0.58 | – | 0.63 | 0.721 | 0.671 | 0.198 | 0.217 | 0.183 | 0.206
NCI-H3122 | 1.08 | 0.954 | 1.06 | 1.06 | 1.07 | 1.02 | 1 | 1.01 | 0.216 | 0.198 | 0.184 | 0.213 | 0.201 | 0.198 | 0.272 | 0.227 | 0.816 | 0.849 | 0.922 | 0.893
PC-3 [JPC-3] | 0.903 | 0.935 | 0.929 | 0.985 | 0.842 | 0.782 | 0.797 | 0.716 | – | 0.502 | 0.28 | 0.544 | – | 0.667 | 0.761 | 0.746 | 0.994 | 0.937 | 0.933 | 1.05
PC-14 | 0.915 | 0.957 | 0.942 | 0.575 | 1.06 | 0.963 | 1.02 | 0.528 | 0.508 | 0.577 | 0.516 | 0.0749 | 0.704 | 0.808 | 0.862 | 0.683 | 0.281 | 0.236 | 0.23 | 0.057
RERF-LC-KJ | 0.925 | 0.921 | 0.848 | 0.796 | 1.01 | 0.751 | 0.828 | 0.952 | 0.977 | 1.07 | 1.14 | 1.03 | 0.782 | 0.853 | 0.851 | 0.929 | 0.799 | 0.774 | 0.975 | 0.715
SK-LU-1 | 1.19 | 1.02 | 0.77 | 0.334 | 0.759 | 0.594 | 0.989 | 0.238 | 0.405 | 0.467 | 0.398 | 0.342 | 0.611 | 0.505 | 0.509 | 0.316 | 0.249 | 0.158 | 0.148 | 0.136
SK-MES-1 | 1.03 | 1.02 | 1.1 | 0.835 | 1.17 | 1.25 | 1.31 | 1.11 | 0.343 | 0.337 | 0.305 | 0.25 | 0.556 | 0.576 | 0.529 | 0.486 | 0.334 | 0.392 | 0.27 | 0.193
SW 1573 | 0.919 | 0.864 | 0.911 | 0.886 | 1.07 | 0.988 | 1.29 | 0.926 | 0.364 | 0.42 | 0.401 | 0.392 | 0.525 | 0.564 | 0.605 | 0.638 | 0.62 | 0.424 | 0.633 | 0.215
UMC-11 | 0.959 | 0.99 | 1.19 | 1.02 | 0.311 | 0.287 | 0.331 | 0.321 | 0.326 | 0.339 | 0.348 | 0.351 | 0.74 | 0.633 | 0.743 | 0.615 | 0.489 | 0.414 | 0.517 | 0.461
